Columns and labels:
[1] = Stability of complex 4 in DMSO followed by 1H NMR; type: physicochemical
Procedure: A Bruker Avance III HD Ascend 500 Plus instrument (Billerica, MA) was used for solution NMR studies. Spectra were recorded with a WATERGATE water suppression pulse scheme in the presence of 10% (v/v) D2O in most cases. DSS internal standard was added to samples to obtain reference peaks.

cathepsin L = target: T1, cathepsin L (Homo sapiens, UniProt P07711); experiment: Relative inhibition of cathepsin L; type: biochemical; conditions: 50 μM; substrate Z-Phe-Arg-AMC; pH 5.5
T1 construct: made in house; host or cells: E. coli
T1 sequence (P07711 114-333): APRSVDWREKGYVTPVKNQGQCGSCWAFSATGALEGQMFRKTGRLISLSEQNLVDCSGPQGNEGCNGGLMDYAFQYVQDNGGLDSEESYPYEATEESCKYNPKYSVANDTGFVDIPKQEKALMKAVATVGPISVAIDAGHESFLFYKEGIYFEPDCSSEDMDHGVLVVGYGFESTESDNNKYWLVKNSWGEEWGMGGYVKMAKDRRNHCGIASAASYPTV
Description: (§1) Relative inhibition is expressed as a percentage of the decrease in reaction velocity in the presence of an inhibitor, in comparison to the reaction velocity in the absence of an inhibitor. For that purpose, the specific fluorogenic substrates Z-Arg-Arg-7-amido-4-methylcoumarin (Z-Arg-Arg-AMC) and 2-aminobenzoyl (Abz)-Gly-Ile-Val-Arg-Ala-Lys-(Dnp)-OH were used for cathepsin B endopeptidase and exopeptidase activities, respectively, and Z-Phe-Arg-AMC was used for cathepsin L and V activities.
(§2) Human recombinant cathepsin B was expressed in E. coli, recombinant cathepsin V was expressed in Pichia pastoris, and human recombinant cathepsin L was expressed in E. coli, as reported. − For the determination of cathepsin B endopeptidase and exopeptidase activities, 100 mM phosphate buffer (pH 6.0) and 60 mM acetate buffer (pH 5.0) were used, respectively, and for the determination of cathepsin V and L activities, 100 mM acetate buffer (pH 5.5) was used. All buffers contained 0.1% PEG 8000 (Sigma-Aldrich, St. Louis, MO), 5 mM cysteine, and 1.5 mM EDTA. Prior to the assay, the enzymes were activated in the assay buffer for 5 min at 37 °C.
(§3) To determine the effect of inhibitors on enzyme activity, the following substrates were used: Z-Arg-Arg-AMC (final concentration 5 μM, Z-RR-AMC; Bachem, Bubendorf, Switzerland) for cathepsin B endopeptidase activity, Abz-Gly-Ile-Val-Arg-Ala-Lys-(Dnp)-OH (final concentration 1 μM, Abz-GIVRAK-(Dnp)-OH; Bachem) for cathepsin B exopeptidase activity, and Z-Phe-Arg-AMC (final concentration 2 μM, Z-FR-AMC; Bachem) for cathepsin V and L activity. The substrate ([…]) at a final concentration and inhibitor ([…]) at a concentration of 50 μM were added to the wells of a black microplate. The reaction was then initiated by adding 90 μL of activated enzyme (final concentrations: 5 nM cathepsin B for its endopeptidase activity, 0.5 nM cathepsin B for its exopeptidase activity, 2.5 ng/mL for cathepsin V, and 0.02 nM for cathepsin L) in the assay buffer. The formation of fluorescent degradation products during the reaction was continuously monitored at 460 ± 10 nm with excitation at 380 ± 20 nm for Z-Arg-Arg-AMC and Z-Phe-Arg-AMC and at 420 ± 10 nm with excitation at 320 ± 20 nm for Abz-Gly-Ile-Val-Arg-Ala-Lys(Dnp)-OH at 37 °C on a Tecan Infinite M1000 (Mannedorf, Switzerland) spectrofluorometer. All assay mixtures contained 5% (v/v) DMSO. To prevent false-positive inhibition due to the formation of compound aggregates, 0.01% Triton X-100 was used. All measurements were performed in triplicate and repeated twice. The relative inhibition was calculated using the following equation: relative inhibition (%) = 100(1 – v i/v o), where v i and v o designate the reaction velocities in the presence and absence of inhibitor, respectively.

cathepsin V = target: T2, cathepsin V (Homo sapiens, UniProt O60911); experiment: Relative inhibition of cathepsin V; type: biochemical; conditions: 50 μM; substrate Z-Phe-Arg-AMC; pH 5.5
T2 construct: made in house; host or cells: Pichia pastoris
T2 sequence (O60911 114-334): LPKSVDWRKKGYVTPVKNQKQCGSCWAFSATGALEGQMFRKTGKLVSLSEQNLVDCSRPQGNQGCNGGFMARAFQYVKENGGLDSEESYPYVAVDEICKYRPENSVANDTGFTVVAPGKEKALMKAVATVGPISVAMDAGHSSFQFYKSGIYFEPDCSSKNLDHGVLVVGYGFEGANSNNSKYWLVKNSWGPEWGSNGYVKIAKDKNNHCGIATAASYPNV
Description: as §1, §2, §3

[2] = target: T3, human serum albumin (HSA) (Homo sapiens, UniProt P02768); experiment: Tryptophan (Trp214) fluorescence quenching assay with HSA; type: binding; conditions: 1 μM HSA
T3 construct: purchased Sigma-Aldrich/Merck A8763
T3 sequence (P02768 25-609): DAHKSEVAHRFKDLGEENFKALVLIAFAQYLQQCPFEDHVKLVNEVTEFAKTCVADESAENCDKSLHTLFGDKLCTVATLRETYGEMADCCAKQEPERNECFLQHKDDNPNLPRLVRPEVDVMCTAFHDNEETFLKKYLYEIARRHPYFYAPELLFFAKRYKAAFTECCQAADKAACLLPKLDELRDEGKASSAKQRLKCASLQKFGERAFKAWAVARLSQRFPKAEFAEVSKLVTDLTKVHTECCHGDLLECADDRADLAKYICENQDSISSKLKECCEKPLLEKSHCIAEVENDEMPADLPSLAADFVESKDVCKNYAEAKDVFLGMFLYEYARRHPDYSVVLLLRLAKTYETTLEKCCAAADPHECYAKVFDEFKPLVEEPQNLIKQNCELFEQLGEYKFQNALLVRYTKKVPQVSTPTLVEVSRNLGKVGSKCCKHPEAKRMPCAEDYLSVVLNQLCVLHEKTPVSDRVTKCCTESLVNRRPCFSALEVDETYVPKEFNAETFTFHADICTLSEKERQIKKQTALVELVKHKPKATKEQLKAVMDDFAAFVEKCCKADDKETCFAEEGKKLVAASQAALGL
Procedure: HSA contains only one tryptophan residue (Trp214), which is located in a hydrophobic pocket in subdomain IIA of the protein. When a compound binds to HSA, it can affect the local environment of Trp214, leading to a decrease in its fluorescence intensity.
Fluorescence measurements were carried out on a Fluoromax (Horiba Jobin Yvon, Longjumeau, France) spectrofluorometer using a 1 cm × 1 cm quartz cuvette. Samples contained 1 μM HSA and the complex concentration was varied between 0 and 18 μM. The measurements were carried out as titration. The excitation wavelength was 295 for the Trp214 quenching measurements, and the determined quenching constant for HSA–complex species (1:1) was obtained using the computer program HypSpec. Calculations always were based on data obtained from at least two independent measurements. Self-absorbance and inner filter effect had to be considered, and corrections were made as was described in our former works. ,

In the case of N#Cc1ccccc1.[C-]#[O+].[C-]#[O+].[C-]#[O+].[O-]n1ccccc1=S.[Re+] [complex 4, fac-[Re(CO)3(pth)(benzonitrile)]], the “bidentate pyrithione ligand coordination to rhenium(I)” value ([1]; 48 h monitoring period, light-exclusion) was “remained coordinated”, the “time for complete replacement of benzonitrile with a solvent molecule” value ([1]; light-exclusion conditions, 1H NMR) was ≤ 1 h and the “relative inhibition cathepsin L” value (cathepsin L) was 5.0 ± 4.8%. The “relative inhibition cathepsin V” value (cathepsin V) was 9.1 ± 1.0%, the maximum nontoxic concentration (Vero cells) was 6.25 µM and the “log KQ quenching constant” value ([2]; 0–18 μM complex, pH 7.4 (PBS), 25 °C) was 6.3 ± 0.1. For the same compound, the “degree of HSA fluorescence quenching” value ([2]; ∼4 equivalents of complex, λEX 295 nm, pH 7.4) was ~85%.
